Laboratory results as given in patent US9168259B2 (GRÜNENTHAL GMBH, priority 2010, dated 2015).
Where two headings read alike, the source gives them in different places.

Molecular target: T1, KCNQ2/3 channels (Homo sapiens, UniProt O43525+O43526)
T1 construct: expressed in transfected cells
Experiment: Fluorescence assay using a voltage sensitive dye (fluorimetry)
Assay type: cell-based
Conditions: for EC50: IC50 where % efficacy is negative, read-out: Fluorimetry EC50/IC50
From the text: Method I. Fluorescence Assay Using a Voltage Sensitive Dye (Fluorimetry)
These voltage-sensitive dyes are fluorescent dyes and, therefore, are forming the link between cell potential influenced by KCNQ modulation and fluorescence intensity. A KCNQ agonist leads to an opening of the channel, potassium and dye efflux, a following hyperpolarization and a reduction of the inner fluorescence intensity in a kinetic protocol. If applying an ion jump by KCl depolarization, KCNQ agonists increase the ΔF/F value. An antagonist performs vice versa, respectively.
Therefore, ‘fluorimetry EC50’ is a measure for the compound potency. The compound efficacy is mirrored by ‘fluorimetry % efficacy’ (‘% Efficacy’) and refers to the maximum response achievable by the test compound, i.e. the plateau effect. This drug's plateau effect is related to the plateau effect, which can be achieved by applying a saturated concentration of a reference compound, e.g. Retigabine (50 μM), in independent wells of the same experimental plate or series.
[…] CHO-K1 cells expressing KCNQ2/3 channels are cultivated adherently at 37° C., 5% CO2 and 95% humidity in cell culture bottles (e.g. 80 cm^2 TC flasks, Nunc) with DMEM-high glucose (Sigma Aldrich, D7777) including 10% FCS (PAN Biotech, e.g. 3302-P270521) or alternatively MEM Alpha Medium (1×, liquid, Invitrogen, #22571), 10% fetal calf serum (FCS) (Invitrogen, #10270-106, heat-inactivated) and the necessary selection antibiotics.
The cell number is determined using a CASY™ cell counter (TCC, Schärfe System). Depending on the optimal density for each individual cell line, 20,000-30,000 cells/well/100 μl are seeded onto 96-well Corning™ CellBIND™ assay plates (Flat Clear Bottom Black Polystyrene Microplates, #3340). Freshly seeded cells are then left to settle for one hour at room temperature, followed by incubation for 24 hours at 37° C., 5% CO2 and 95% humidity.
The voltage-sensitive fluorescent dye from the Membrane Potential Assay Kit (Red™ Bulk format part R8123 for FLIPR, MDS Analytical Technologies™) is prepared by dissolving the contents of one vessel Membrane Potential Assay Kit Red Component A in 200 ml of extracellular buffer (ES buffer, 120 mM NaCl, 1 mM KCl, 10 mM HEPES, 2 mM CaCl2, 2 mM MgCl2, 10 mM glucose; pH 7.4). After removal of the nutrient medium, the cells are washed once with 200 μl of ES buffer, then loaded for 45 min at room temperature in 100 μl of dye solution in the dark.
Fluorescence measurements are carried out in a BMG Labtech FLUOstar™, BMG Labtech NOVOstar™ or BMG Labtech POLARstar™ instrument (525 nm excitation, 560 nm emission, Bottom Read mode). After incubation with the dye, 50 μl of the test substances in the desired concentrations, or 50 μl of ES buffer for control purposes, are applied to the wells of the assay plate and incubated for 30 min at room temperature while being shielded from light. The fluorescence intensity of the dye is then measured for 5 min and the fluorescence value F1 of each well is thus determined at a given, constant time. 15 μl of a KCl solution are then added to each well (final concentration of potassium ions 92 mM). The change in fluorescence intensity is subsequently monitored until all the relevant values have been obtained (mainly 5-30 min). At a given time post KCl application, a fluorescence value F2 is determined, in this case at the time of the fluorescence peak.
For calculation, the fluorescence intensity F2 is corrected for the fluorescence intensity F1, and the activity (ΔF/F) of the target compound on the potassium channel is determined as follows:
In order to determine whether a substance has agonistic activity,
[formula] can be related to
[formula] of control wells.
[formula] is determined by adding to the well only the buffer solution instead of the test substance, determining the value F1K of the fluorescence intensity, adding the potassium ions as described above, and measuring a value F2K of the fluorescence intensity.

[1] = CHO-K1, plateau effect relative to saturated retigabine (50 μM) = 100%, CHO-K1 cells expressing KCNQ2/3, negative values = antagonistic, read-out: Fluorimetry % efficacy (retigabine = 100%)
[2] = CHO-K1 cells expressing KCNQ2/3

T1 sequence (O43526 whole entry): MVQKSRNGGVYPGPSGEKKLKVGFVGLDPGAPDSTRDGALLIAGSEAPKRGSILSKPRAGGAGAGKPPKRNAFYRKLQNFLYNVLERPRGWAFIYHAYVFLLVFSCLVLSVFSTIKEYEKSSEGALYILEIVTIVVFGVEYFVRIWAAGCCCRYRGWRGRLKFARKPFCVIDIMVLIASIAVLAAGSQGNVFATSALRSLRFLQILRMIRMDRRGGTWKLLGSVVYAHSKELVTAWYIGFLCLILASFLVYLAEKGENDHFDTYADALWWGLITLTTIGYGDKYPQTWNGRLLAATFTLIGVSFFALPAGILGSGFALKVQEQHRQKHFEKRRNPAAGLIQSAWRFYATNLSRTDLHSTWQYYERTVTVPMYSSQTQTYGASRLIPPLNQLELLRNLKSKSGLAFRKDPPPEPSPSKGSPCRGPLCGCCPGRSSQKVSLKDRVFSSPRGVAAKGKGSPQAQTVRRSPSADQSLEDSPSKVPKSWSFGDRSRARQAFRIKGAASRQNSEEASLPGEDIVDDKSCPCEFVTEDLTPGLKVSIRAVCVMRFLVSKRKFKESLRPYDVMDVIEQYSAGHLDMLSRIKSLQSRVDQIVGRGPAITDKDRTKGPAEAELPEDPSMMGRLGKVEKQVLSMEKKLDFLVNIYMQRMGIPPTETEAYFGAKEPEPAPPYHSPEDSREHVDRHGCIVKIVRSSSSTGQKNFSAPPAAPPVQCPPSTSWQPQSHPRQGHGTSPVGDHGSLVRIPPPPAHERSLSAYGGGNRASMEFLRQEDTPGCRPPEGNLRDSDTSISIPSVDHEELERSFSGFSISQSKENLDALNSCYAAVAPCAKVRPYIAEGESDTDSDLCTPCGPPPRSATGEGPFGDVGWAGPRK
T1 sequence (O43525 whole entry): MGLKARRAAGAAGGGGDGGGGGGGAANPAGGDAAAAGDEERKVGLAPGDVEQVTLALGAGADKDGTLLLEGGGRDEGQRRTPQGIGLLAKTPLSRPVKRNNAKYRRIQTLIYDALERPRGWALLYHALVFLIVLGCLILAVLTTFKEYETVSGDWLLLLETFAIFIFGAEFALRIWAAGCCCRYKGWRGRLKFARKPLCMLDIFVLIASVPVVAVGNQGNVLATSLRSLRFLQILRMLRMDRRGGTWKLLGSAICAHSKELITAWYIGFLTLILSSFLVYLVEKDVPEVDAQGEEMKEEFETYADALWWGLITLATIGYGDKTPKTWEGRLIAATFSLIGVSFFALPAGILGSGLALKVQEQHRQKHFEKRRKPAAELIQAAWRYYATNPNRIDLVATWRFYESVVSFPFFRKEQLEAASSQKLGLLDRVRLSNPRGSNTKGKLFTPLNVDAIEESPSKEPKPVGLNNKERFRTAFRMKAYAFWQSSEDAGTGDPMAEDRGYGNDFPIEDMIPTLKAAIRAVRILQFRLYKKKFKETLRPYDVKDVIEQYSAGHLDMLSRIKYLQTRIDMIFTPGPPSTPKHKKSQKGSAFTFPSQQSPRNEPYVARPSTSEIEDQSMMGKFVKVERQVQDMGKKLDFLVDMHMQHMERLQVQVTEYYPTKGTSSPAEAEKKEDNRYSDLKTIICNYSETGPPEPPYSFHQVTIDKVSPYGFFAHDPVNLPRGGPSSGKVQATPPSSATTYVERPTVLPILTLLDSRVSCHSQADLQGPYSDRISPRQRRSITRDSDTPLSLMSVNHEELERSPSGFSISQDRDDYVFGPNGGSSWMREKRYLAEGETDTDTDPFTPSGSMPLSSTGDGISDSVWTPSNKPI

SMILES	Emax [1] [%]	EC50 [2] [nM]	Emax (CHO-K1, read-out: Fluorimetry % efficacy (retigabine = 100%)) [%]
CCSc1nc(N2CCOCC2)cc(C)c1C(=O)NCCCc1ccc(F)cc1 [Example 108, 2-Ethylsulfanyl-N-[3-(4-fluorophenyl)-propyl]-4-methyl-6-morpholin-4-yl-pyridine-3-carboxylic acid amide]	203	317	
CCSc1nc(N2CCOCC2)cc(C)c1C(=O)NCc1ccc(F)cc1-c1ccc(F)cc1 [Example 85, 2-Ethylsulfanyl-N-[[4-fluoro-2-(4-fluorophenyl)-phenyl]-methyl]-4-methyl-6-morpholin-4-yl-pyridine-3-carboxylic acid amide]	-61	107	
Cc1cc(N2CCOCC2)nc(C2CC2)c1C(=O)NCc1cccc(F)c1 [Example 330, 2-Cyclopropyl-N-[(3-fluorophenyl)-methyl]-4-methyl-6-morpholin-4-yl-pyridine-3-carboxylic acid amide]	156	168	
CCC(C)c1nc(N2CCOCC2)cc(C)c1C(=O)NCc1ccc(Cl)cc1 (centres unmarked) [Example 347, N-[(4-Chlorophenyl)-methyl]-4-methyl-2-(1-methyl-propyl)-6-morpholin-4-yl-pyridine-3-carboxylic acid amide]	156	41	
CCSc1nc(N(C)C)cc(C)c1C(=O)NCCCC(C)(C)C [Example 210, 6-Dimethylamino-N-(4,4-dimethyl-pentyl)-2-ethylsulfanyl-4-methyl-pyridine-3-carboxylic acid amide]	223	187	
CCOC(=O)CN(C)c1cc(C)c(C(=O)NCc2cccc(F)c2)c(SCC)n1 [Example 72]		2080	93
CCSc1nc(N(C)Cc2ccc(F)cc2)cc(C)c1C(=O)NCc1cccc(F)c1 [Example 52, 2-Ethylsulfanyl-N-[(3-fluorophenyl)-methyl]-6-[(4-fluorophenyl)-methyl-methyl-amino]-4-methyl-pyridine-3-carboxylic acid amide]	122	235	
CCOc1nc(N2CCCOCC2)cc(C)c1C(=O)NCc1cccc(F)c1 [Example 99, 2-Ethoxy-N-[(3-fluorophenyl)-methyl]-4-methyl-6-([1,4]oxazepan-4-yl)-pyridine-3-carboxylic acid amide]	134	899	
CCSc1nc(N2CCOCC2)cc(C)c1C(=O)NCc1cc(C)cc(C)c1 [Example 208, N-[(3,5-Dimethyl-phenyl)-methyl]-2-ethylsulfanyl-4-methyl-6-morpholin-4-yl-pyridine-3-carboxylic acid amide]	61	281	
CCSc1nc(N2CCOCC2)cc(C)c1C(=O)NCc1cccc(C#N)c1 [Example 102, N-[(3-Cyano-phenyl)-methyl]-2-ethylsulfanyl-4-methyl-6-morpholin-4-yl-pyridine-3-carboxylic acid amide]	138	1220	
CCOc1nc(N2CCOCC2)cc(C)c1C(=O)NCc1ccccc1-c1ccccc1 [Example 92, 2-Ethoxy-4-methyl-6-morpholin-4-yl-N-[(2-phenyl-phenyl)-methyl]-pyridine-3-carboxylic acid amide]	-79	128	
COCCSc1nc(N2CCOCC2)cc(C)c1C(=O)NCc1cccc(F)c1 [Example 63, N-[(3-Fluorophenyl)-methyl]-2-(2-methoxy-ethylsulfanyl)-4-methyl-6-morpholin-4-yl-pyridine-3-carboxylic acid amide]	157	585	
CCSc1nc(N2CCOCC2)cc(C)c1C(=O)NCCC1CCCCO1 (centres unmarked) [Example 68, 2-Ethylsulfanyl-4-methyl-6-morpholin-4-yl-N-(2-tetrahydro-pyran-2-yl-ethyl)-pyridine-3-carboxylic acid amide]	134	7370	
CCSc1nc(N(CCOC)CCOC)cc(C)c1C(=O)NCc1cccc(F)c1 [Example 126, 6-[Bis(2-methoxy-ethyl)-amino]-2-ethylsulfanyl-N-[(3-fluorophenyl)-methyl]-4-methyl-pyridine-3-carboxylic acid amide]	145	2090	
Cc1cc(N2CCOCC2)nc(OCCN(C)C)c1C(=O)NCc1ccc(Cl)cc1 [Example 283, N-[(4-Chlorophenyl)-methyl]-2-(2-dimethylaminoethyloxy)-4-methyl-6-morpholin-4-yl-pyridine-3-carboxylic acid amide]	22		
CCSc1nc(N(C)CCCOC)cc(C)c1C(=O)NCCCC(C)(C)C [Example 212, N-(4,4-Dimethyl-pentyl)-2-ethylsulfanyl-6-(3-methoxy-propyl-methyl-amino)-4-methyl-pyridine-3-carboxylic acid amide]	200	152	
COc1nc(N2CCOC[C@H]2C)cc(C)c1C(=O)NCCCC(C)(C)C [Example 186, N-(4,4-Dimethyl-pentyl)-2-methoxy-4-methyl-6-[(3R)-3-methyl-morpholin-4-yl]-pyridine-3-carboxylic acid amide]	240	63	
CCSc1nc(N2CCOCC2)cc(C)c1C(=O)NCC1CCCCC1 [Example 76, N-(Cyclohexyl-methyl)-2-ethylsulfanyl-4-methyl-6-morpholin-4-yl-pyridine-3-carboxylic acid amide]	179	91	
CCSc1nc(N2CCO[C@@H](COC)C2)cc(C)c1C(=O)NCc1ccc(Cl)cc1 [Example 254, N-[(4-Chlorophenyl)-methyl]-2-ethylsulfanyl-6-[(2R)-2-(methoxymethyl)-morpholin-4-yl]-4-methyl-pyridine-3-carboxylic acid amide]	113	943	
COc1nc(N2CCOCC2)cc(C)c1C(=O)NCc1cc(F)cc(F)c1 [Example 3, N-[(3,5-Difluoro-phenyl)-methyl]-2-methoxy-4-methyl-6-morpholin-4-yl-pyridine-3-carboxylic acid amide]	132	233	
CCSc1nc(N2CCOCC2)c(F)c(C)c1C(=O)NCc1cccc(F)c1 [Example 58, 2-Ethylsulfanyl-5-fluoro-N-[(3-fluorophenyl)-methyl]-4-methyl-6-morpholin-4-yl-pyridine-3-carboxylic acid amide]	173	2290	
CCSc1nc(N2CCOCC2)cc(C)c1C(=O)NCc1ccc(C(F)(F)F)cc1F [Example 135, 2-Ethylsulfanyl-N-[[2-fluoro-4-(trifluoromethyl)-phenyl]-methyl]-4-methyl-6-morpholin-4-yl-pyridine-3-carboxylic acid amide]	43	54	
CCSc1nc(N2CCS(=O)(=O)CC2)cc(C)c1C(=O)NCc1cccc(F)c1 [Example 298, 6-(1,1-Dioxo-[1,4]thiazinan-4-yl)-2-ethylsulfanyl-N-[(3-fluorophenyl)-methyl]-4-methyl-pyridine-3-carboxylic acid amide]	127	4590	
CCC(C)c1nc(N2CCOC[C@H]2C)cc(C)c1C(=O)NCCCC(C)(C)C (stereo partly drawn) [Example 195, N-(4,4-Dimethyl-pentyl)-4-methyl-6-[(3R)-3-methyl-morpholin-4-yl]-2-(1-methyl-propyl)-pyridine-3-carboxylic acid amide]	242	13	
